Assay results published in PubChem BioAssay (NCI).
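Step 1: Grow cells in 96-well plates. Step 2: Expose to compound for 48 hours at 5 concentrations. Step 3: Interpolate endpoints linearly; if unreached, use highest concentration. At the GI50, growth is halved. TGI is the concentration that stops growth completely.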

What was measured:
Assay in all cases: growth of human tumour cells (NCI), 48 h; in the data active means GI50 below about 0.43 µM; inactive means the rest
PC-3 prostate = tested on: PC-3 prostate
MDA-MB-231 breast = tested on: MDA-MB-231 breast
NCI-H460 lung = tested on: NCI-H460 lung
UO-31 renal = tested on: UO-31 renal
CAKI-1 renal = tested on: CAKI-1 renal
KM12 colon = tested on: KM12 colon
SF-539 CNS = tested on: SF-539 CNS
IGROV1 ovarian = tested on: IGROV1 ovarian
HS 578T breast = tested on: HS 578T breast
SF-268 CNS = tested on: SF-268 CNS
HOP-92 NSCLC = tested on: HOP-92 NSCLC
NCI/ADR-RES ovarian = tested on: NCI/ADR-RES ovarian
MDA-MB-435 = tested on: MDA-MB-435
CCRF-CEM leukemia = tested on: CCRF-CEM leukemia
OVCAR-5 ovarian = tested on: OVCAR-5 ovarian
SK-MEL-5 melanoma = tested on: SK-MEL-5 melanoma
HT29 colon = tested on: HT29 colon
BT-549 breast = tested on: BT-549 breast
NCI-H226 lung = tested on: NCI-H226 lung
SW-620 colon = tested on: SW-620 colon
K-562 leukemia = tested on: K-562 leukemia
A498 renal = tested on: A498 renal
SNB-75 CNS = tested on: SNB-75 CNS
T-47D breast = tested on: T-47D breast
SNB-19 CNS = tested on: SNB-19 CNS
SK-OV-3 ovarian = tested on: SK-OV-3 ovarian
OVCAR-3 ovarian = tested on: OVCAR-3 ovarian
HCT-116 colon = tested on: HCT-116 colon
RXF 393 renal = tested on: RXF 393 renal
DU-145 prostate = tested on: DU-145 prostate
ACHN renal = tested on: ACHN renal
LOX IMVI melanoma = tested on: LOX IMVI melanoma
SK-MEL-28 melanoma = tested on: SK-MEL-28 melanoma
SF-295 CNS = tested on: SF-295 CNS
UACC-62 melanoma = tested on: UACC-62 melanoma
MALME-3M melanoma = tested on: MALME-3M melanoma
M14 melanoma = tested on: M14 melanoma
A549 NSCLC = tested on: A549 NSCLC
NCI-H23 lung = tested on: NCI-H23 lung
SN12C renal = tested on: SN12C renal
HL-60(TB) leukemia = tested on: HL-60(TB) leukemia
SK-MEL-2 melanoma = tested on: SK-MEL-2 melanoma
OVCAR-4 ovarian = tested on: OVCAR-4 ovarian
RPMI-8226 leukemia = tested on: RPMI-8226 leukemia
786-0 renal = tested on: 786-0 renal
TK-10 renal = tested on: TK-10 renal
HOP-62 NSCLC = tested on: HOP-62 NSCLC
EKVX NSCLC = tested on: EKVX NSCLC
HCC-2998 colon = tested on: HCC-2998 colon
COLO 205 colon = tested on: COLO 205 colon
MOLT-4 leukemia = tested on: MOLT-4 leukemia
U251 CNS = tested on: U251 CNS
OVCAR-8 ovarian = tested on: OVCAR-8 ovarian
UACC-257 melanoma = tested on: UACC-257 melanoma
HCT-15 colon = tested on: HCT-15 colon
MCF7 breast = tested on: MCF7 breast
SR leukemia = tested on: SR leukemia

Oc1ccccc1/C=N/Nc1nc(N/N=C/c2ccccc2O)nc(N2CCOCC2)n1
20.4 µM: TGI (NCI-H226 lung)
34.5 µM: TGI (OVCAR-8 ovarian)
0.873 µM: TGI (LOX IMVI melanoma)
5.26 µM: TGI (SNB-75 CNS)
22.3 µM: TGI (U251 CNS)
6.01 µM: TGI (HOP-92 NSCLC)
30.9 µM: TGI (MDA-MB-231 breast)
18.7 µM: TGI (UO-31 renal)
20.1 µM: TGI (NCI-H23 lung)
7.56 µM: TGI (OVCAR-4 ovarian)
16.2 µM: TGI (HCT-15 colon)
13.8 µM: TGI (SK-OV-3 ovarian)
44.9 µM: TGI (ACHN renal)
32 µM: TGI (EKVX NSCLC)
9.37 µM: TGI (NCI/ADR-RES ovarian)
active: GI50 (UO-31 renal) 0.372 µM | GI50 (RXF 393 renal) 0.272 µM | GI50 (LOX IMVI melanoma) 0.276 µM | GI50 (HL-60(TB) leukemia) 0.193 µM | GI50 (HCT-15 colon) 0.241 µM | GI50 (SR leukemia) 0.322 µM
2.45 µM: TGI (RXF 393 renal)
8.58 µM: TGI (A498 renal)
15.3 µM: TGI (786-0 renal)
> 100 µM: TGI (PC-3 prostate) | TGI (KM12 colon) | TGI (SF-539 CNS) | TGI (IGROV1 ovarian) | TGI (SF-268 CNS) | TGI (MDA-MB-435) | TGI (CCRF-CEM leukemia) | TGI (OVCAR-5 ovarian) | TGI (SK-MEL-5 melanoma) | TGI (HT29 colon) | TGI (BT-549 breast) | TGI (K-562 leukemia) | TGI (T-47D breast) | TGI (OVCAR-3 ovarian) | TGI (HCT-116 colon) | TGI (DU-145 prostate) | TGI (SF-295 CNS) | TGI (UACC-62 melanoma) | TGI (MALME-3M melanoma) | TGI (M14 melanoma) | TGI (SN12C renal) | TGI (HL-60(TB) leukemia) | TGI (SK-MEL-2 melanoma) | TGI (RPMI-8226 leukemia) | TGI (TK-10 renal) | TGI (HCC-2998 colon) | TGI (COLO 205 colon) | TGI (MOLT-4 leukemia) | TGI (UACC-257 melanoma) | TGI (MCF7 breast) | TGI (SR leukemia)
52.2 µM: TGI (A549 NSCLC)
49.9 µM: TGI (SK-MEL-28 melanoma)
14.9 µM: TGI (SNB-19 CNS)
44.1 µM: TGI (HS 578T breast)
23 µM: TGI (HOP-62 NSCLC)
23.4 µM: TGI (SW-620 colon)
46.5 µM: TGI (CAKI-1 renal)
17.4 µM: TGI (NCI-H460 lung)
inactive: GI50 (PC-3 prostate) 3.61 µM | GI50 (MDA-MB-231 breast) 2.42 µM | GI50 (NCI-H460 lung) 2.3 µM | GI50 (CAKI-1 renal) 4.52 µM | GI50 (KM12 colon) 33.2 µM | GI50 (SF-539 CNS) 7.29 µM | GI50 (IGROV1 ovarian) 0.966 µM | GI50 (HS 578T breast) 3.24 µM | GI50 (SF-268 CNS) 16.9 µM | GI50 (HOP-92 NSCLC) 1.65 µM | GI50 (NCI/ADR-RES ovarian) 0.685 µM | GI50 (MDA-MB-435) 9.53 µM | GI50 (CCRF-CEM leukemia) 0.537 µM | GI50 (OVCAR-5 ovarian) 6.41 µM | GI50 (SK-MEL-5 melanoma) 5.86 µM | GI50 (HT29 colon) 5.89 µM | GI50 (BT-549 breast) 5.19 µM | GI50 (NCI-H226 lung) 3.92 µM | GI50 (SW-620 colon) 1.78 µM | GI50 (K-562 leukemia) 0.683 µM | GI50 (A498 renal) 1.09 µM | GI50 (SNB-75 CNS) 1.82 µM | GI50 (T-47D breast) 3.34 µM | GI50 (SNB-19 CNS) 3.14 µM | GI50 (SK-OV-3 ovarian) 3.7 µM | GI50 (OVCAR-3 ovarian) 3.42 µM | GI50 (HCT-116 colon) 0.823 µM | GI50 (DU-145 prostate) 6.09 µM | GI50 (ACHN renal) 1.58 µM | GI50 (SK-MEL-28 melanoma) 3.2 µM | GI50 (SF-295 CNS) 7.67 µM | GI50 (UACC-62 melanoma) 24.5 µM | GI50 (MALME-3M melanoma) 8.69 µM | GI50 (M14 melanoma) 3.22 µM | GI50 (A549 NSCLC) 2.88 µM | GI50 (NCI-H23 lung) 4.31 µM | GI50 (SN12C renal) 18.3 µM | GI50 (SK-MEL-2 melanoma) 6.06 µM | GI50 (OVCAR-4 ovarian) 2.48 µM | GI50 (RPMI-8226 leukemia) 2.78 µM | GI50 (786-0 renal) 0.709 µM | GI50 (TK-10 renal) 44.9 µM | GI50 (HOP-62 NSCLC) 3.51 µM | GI50 (EKVX NSCLC) 3.28 µM | GI50 (HCC-2998 colon) 7.65 µM | GI50 (COLO 205 colon) 5.53 µM | GI50 (MOLT-4 leukemia) 1.55 µM | GI50 (U251 CNS) 3.06 µM | GI50 (OVCAR-8 ovarian) 3.75 µM | GI50 (UACC-257 melanoma) 6.53 µM | GI50 (MCF7 breast) 2.39 µM
